Measured values: ChEMBL document CHEMBL4715692, “Design, synthesis and activity evaluation of novel peptide fusion inhibitors targeting HIV-1 gp41” (Bioorg Med Chem, 2016)
Active and inactive are the calls of the source. No cut-off for these calls is given here. Where a SMILES comes first, the peptide text is derived from it. The star is where a group is joined. X1 = CCCCCCCCCCCCCCC(=O)O*

Assays:
[1] = Inhibition of gp41 in HIV1 3B infected in human HeLa-MAGI-CCR5 cells harboring reporter gene comprising HIV1 LTR in the upstream and lacZ gene of Escherichia coli in the downstream assessed as inhibition of cell-cell fusion by optical microscopy analysis; assay type: cell-based; conditions: Human immunodeficiency virus 1, 3B
[2] = tested on: Human immunodeficiency virus 1; assay: Binding affinity to gp41 NHR helix in HIV1 assessed as inhibition of gp41 6-helix conformation incubated for 1 hr by SDS-PAGE analysis
[3] = tested on: Human immunodeficiency virus 1; assay: Binding affinity to gp41 NHR helix in HIV1 assessed as interaction between compound-gp41 5-helix causing band deviation incubated for 1 hr by native PAGE analysis
[4] = tested on: Human immunodeficiency virus 1; assay: Binding affinity to gp41 NHR helix in HIV1 assessed as inhibition of gp41 6-helix conformation incubated for 1 hr by native PAGE analysis
[5] = tested on: Human immunodeficiency virus 1; assay: Binding affinity to gp41 NHR helix in HIV1 assessed as interaction between compound-gp41 5-helix causing band deviation incubated for 1 hr by SDS-PAGE analysis

Row | Molecule | IC50 [1] | also measured
1 | CC[C@H](C)[C@H](NC(=O)[C@H](CC(C)C)NC(=O)[C@H](CCC(=O)O)NC(=O)[C@H](CCC(=O)O)NC(=O)[C@@H](NC(=O)[C@H](CCCCN)NC(=O)[C@H](CCCCN)NC(=O)[C@@H](NC(=O)[C@H](Cc1ccc(O)cc1)NC(=O)[C@H](CCCNC(=N)N)NC(=O)[C@H](CCC(=O)O)NC(=O)[C@@H](NC(=O)[C@H](CCC(=O)O)NC(=O)[C@H](CC(=O)O)NC(=O)[C@H](CCCNC(=N)N)NC(=O)[C@H](Cc1c[nH]c2ccccc12)NC(=O)[C@H](CC(=O)O)NC(=O)[C@H](CS)NC(=O)[C@H](Cc1c[nH]c2ccccc12)NC(=O)[C@@H](NC(=O)[C@@H](N)CCSC)[C@@H](C)O)[C@@H](C)CC)[C@@H](C)O)[C@@H](C)CC)C(=O)N[C@@H](CCCNC(=N)N)C(=O)N[C@@H](C)C(=O)N[C@@H](C)C(=O)N[C@@H](CCC(N)=O)C(=O)N[C@@H](CCC(=O)O)C(=O)N[C@@H](CC(C)C)C(=O)N[C@@H](CCC(N)=O)C(=O)N[C@@H](CCC(=O)O)C(=O)N[C@@H](CCCCN)C(=O)N[C@@H](CC(N)=O)C(=O)N[C@@H](CCC(=O)O)C(=O)N[C@@H](C)C(=O)N[C@@H](C)C(=O)N[C@@H](CC(C)C)C(=O)N[C@@H](CCCCN)C(=O)N[C@@H](CCC(=O)O)C(=O)N[C@@H](CC(C)C)C(=O)O | 159 nM | 
2 | CC[C@H](C)[C@H](NC(=O)[C@H](CC(C)C)NC(=O)[C@H](CCC(=O)O)NC(=O)[C@H](CCC(=O)O)NC(=O)[C@@H](NC(=O)[C@H](CCCCN)NC(=O)[C@@H](CCCCN)NC(=O)[C@@H](NC(=O)[C@H](Cc1ccc(O)cc1)NC(=O)[C@H](CCCNC(=N)N)NC(=O)[C@H](CCC(=O)O)NC(=O)[C@@H](NC(=O)[C@H](CCC(=O)O)NC(=O)[C@H](CC(=O)O)NC(=O)[C@H](CCCNC(=N)N)NC(=O)[C@H](Cc1c[nH]c2ccccc12)NC(=O)[C@H](CC(=O)O)NC(=O)[C@H](CS)NC(=O)[C@H](Cc1c[nH]c2ccccc12)NC(=O)[C@@H](NC(=O)[C@@H](N)CCSC)[C@@H](C)O)[C@@H](C)CC)[C@@H](C)O)[C@@H](C)CC)C(=O)N[C@@H](CCCNC(=N)N)C(=O)N[C@@H](C)C(=O)N[C@@H](C)C(=O)N[C@@H](CCC(N)=O)C(=O)N[C@@H](CCC(=O)O)C(=O)N[C@@H](CC(C)C)C(=O)N[C@@H](CCC(N)=O)C(=O)N[C@@H](CCC(=O)O)C(=O)N[C@@H](CCCCN)C(=O)N[C@@H](CC(N)=O)C(=O)N[C@@H](CCC(=O)O)C(=O)N[C@@H](C)C(=O)N[C@@H](C)C(=O)N[C@@H](CC(C)C)C(=O)N[C@@H](CCCCN)C(=O)N[C@@H](CCC(=O)O)C(=O)N[C@@H](CC(C)C)C(=O)O | 57.2 nM | 
3 | CCCCCCCCCCCCCCC(=O)OC(=O)[C@H](CCC(N)=O)NC(=O)[C@H](CCC(N)=O)NC(=O)[C@H](CCCNC(=N)N)NC(=O)[C@H](CCC(N)=O)NC(=O)[C@H](C)NC(=O)[C@H](CC(=O)O)NC(=O)[C@H](CCCCN)NC(=O)[C@@H](NC(=O)[C@H](CC(C)C)NC(=O)[C@H](C)NC(=O)[C@H](CCC(=O)O)NC(=O)[C@@H](NC(=O)[C@H](CC(N)=O)NC(=O)[C@H](CCCNC(=N)N)NC(=O)[C@@H](NC(=O)[C@H](Cc1ccc(O)cc1)NC(=O)[C@H](CC(N)=O)NC(=O)[C@H](CCC(=O)O)NC(=O)[C@@H](NC(=O)[C@H](CCC(=O)O)NC(=O)[C@H](CCCNC(=N)N)NC(=O)[C@H](CC(=O)O)NC(=O)[C@H](Cc1c[nH]c2ccccc12)NC(=O)[C@H](CCC(N)=O)NC(=O)[C@H](CCC(=O)O)NC(=O)[C@H](Cc1c[nH]c2ccccc12)NC(=O)[C@@H](NC(=O)[C@H](CCCCN)NC(=O)[C@H](CC(N)=O)NC(=O)[C@H](CC(N)=O)NC(=O)[C@H](Cc1c[nH]c2ccccc12)NC(=O)[C@H](CCC(=O)O)NC(=O)[C@@H](N)CCC(N)=O)[C@@H](C)O)[C@@H](C)CC)C(C)C)[C@@H](C)CC)[C@@H](C)CC (H-QEWNNKTWEQWDREIENYVRNIEALIKDAQRQQ-X1) | 222 nM | 
4 | H-MTWCDWRDEIERYTKKIEELIRAAQEWQEKNEAALKEL-OH | 53 nM | inhibition [2]: Active; Activity [3]: Active; inhibition [4]: Active; Activity [5]: Active
5 | H-QEWNNKTWEQWDREIENYVRNIEALIKDAQRQQ-OH | 866 nM | 
6 | H-RAWVAWRNKIDRYTKKIEELIRELIRAAQELQEKNEAALKEL-OH | 338 nM | 
7 | H-RAWVAWRNKIENYTRRIEELIEELIRRSQEQERRQ-OH | > 2430 nM | 
8 | H-SIWNNMTWCDWRDEIEEYTKKIEELIKKSQEQASWNWF-OH | 203 nM | 
9 | H-VEWNARAWVAWRNRIENYAKKIEKLIRQSQEQQ-OH | 1000 nM | 
